{"source": "patent US20190112580A1", "about": "“METHODS FOR TREATING CO[…] AND RELATED CULTURED CELLS” (priority 2017, published 2019)", "key": {"[1]": {"test_system": "myoblast cell preparation", "test": "5-AZA concentration and medium finding in myoblast cell preparation", "description": "The myoblast cell preparation may be cultured in a proliferation medium in the presence of a DNA methyltransferase inhibitor, such as 5-AZA. A DNA methyltransferase inhibitor may be introduced while the myoblast cell preparation is being developed in the proliferation medium. For instance, a DNA methyltransferase inhibitor may be introduced once the myoblast cell preparation is at 50-80% cell confluence by visual inspection. A higher confluence percentage or density may be appropriate, so long as the confluence is not so high that the cells become overcrowded or grow in multiple layers, resulting in spontaneous cell fusion and/or cell death. The DNA methyltransferase inhibitor may be introduced earlier, for instance, at the same time the isolated satellite cells are added to the proliferation medium. […] Concentrations of DNA methyltransferase inhibitor used may vary. For example, the myoblast cell preparation may be cultured in proliferation medium in the presence of 5 μM of 5-AZA. […] The myoblast cell preparation may be cultured in the presence of a DNA methyltransferase inhibitor for a period of time. One appropriate period of time using 5 μM of 5-AZA is 24 hours. As few as 6 hours may be appropriate using 5 μM of 5-AZA."}, "[2]": {"test_system": "CP patient derived myoblast cells", "test": "Myoblast fusion and myotube formation, immunostaining and Fusion Index", "type": "cell-based, human", "settings": "5 μM, 24 hours pretreatment, 42 hours differentiation", "source_text": "Myotubes were differentiated using the following methods. Once the appropriate level of cell confluence of 50-80% was obtained for the myoblast cell preparation, fusion and differentiation of myoblasts into myotubes was promoted by switching from a high-serum medium to a low-serum differentiation medium. […] Specifically, the high-serum proliferation medium was made of Ham's F10 medium (Corning Life Sciences, Tewksbury, Mass.) combined with 20% Fetal Bovine Serum (“FBS”) (Gibco brand, Thermo Fischer Scientific, Waltham, Mass.) 10 mg/ml streptomycin, and 100 units/ml penicillin (Gibco), human recombinant bFGF (5 ng/ml) (Becton Dickenson). […] Cell preparations cultured in the low-serum differentiation medium may be analyzed for myotube formation starting from about 24 hours to about 6 weeks after switching from the high-serum to the low-serum medium.\nFor visual and quantitative analysis by immunostaining, the isolated satellite cell-derived myoblast cell preparations were treated for immunostaining. […] Fluorescence microscopy was performed using an epifluorescence or confocal microscope using the 20× air objective, the 40×, or 63× oil immersion objective and zoom rates between 1 and 3 in sequential scanning mode. […]"}, "[3]": {"test_system": "proliferating CP and TD myoblast cultures", "test": "Global DNA methylation, MethylFlash Methylated DNA Quantification Kit", "type": "cell-based, human", "settings": "5 μM, 24 hours; FIG. 9A", "protocol": "FIG. 9A illustrates global methylation levels of DNA in proliferating CP and TD myoblast cultures that were treated or non-treated with 5-AZA. Methylation levels were measured using a MethylFlash Methylated DNA Quantification Kit (EpiGentek, P-1034-96). Myoblasts were seeded into gelatin-coated 10 cm plates. Myoblast cell preparations from CP and TD study subjects were exposed to 5 μM of 5-AZA in proliferation medium. 5-AZA was introduced while the myoblast cell preparations were being developed in the high-serum medium, once the myoblast cell preparations were at about 60% of cell plate confluence by visual inspection. […] The myoblast cell preparations then had the 5-AZA washed off by switching the myoblast cell preparations each to fresh high-serum medium and further expanded to 90% of confluence. DNA was extracted from these cultures using the “DNA Purification from Cultured Cells” protocol as described in the Gentra Puregene DNA isolation kit (Qiagen, 158388).\nIn FIG. 9A, global methylation levels of DNA were investigated in proliferating CP and TD myoblast cultures that were treated or non-treated with 5-AZA. Methylation levels were measured using a MethylFlash Methylated DNA Quantification Kit (EpiGentek, P-1034-96). Myoblasts were seeded into gelatin-coated 10 cm plates. Myoblast cell preparations from CP and TD study subjects were exposed to 5 μM of 5-AZA in proliferation medium. […]"}, "[4]": {"test_system": "CP and TD myoblast preparations", "test": "Cell doubling time, xCELLigence RTCA DP", "type": "cell-based, human", "settings": "5 μM, 24 hours; FIG. 9B", "protocol": "FIG. 9B. A cell impedance-measuring xCELLigence RTCA DP instrument was used to quantify rates of “cell doubling time” (a measurement of cell proliferation) in CP and TD myoblast preparations, treated and non-treated with 5-AZA, as illustrated in FIG. 9B. Proliferating myoblasts were treated with 5 μM 5-AZA (Sigma-Aldrich) for 24 hours to induce DNA hypomethylation. Other cell preparations were not treated with 5-AZA to serve as a control. Following treatment, myoblasts were harvested from exponential growth phase cultures by a standardized detachment procedure using 0.05% Trypsin-EDTA and counted. […] Plates were locked in the RTCA DP device in the incubator and the impedance value of each well was automatically monitored by the xCELLigence system and expressed as a Cell Index value (CI). […] CI was recorded every 15 min for the entirety of the period. Cell doubling time was calculated from the exponential phase of the growth curve generated by the CI values using the supplied RTCA software.\nA cell impedance-measuring xCELLigence RTCA DP instrument was used to quantify rates of “cell doubling time” (a measurement of cell proliferation) in CP and TD myoblast preparations, treated and non-treated with 5-AZA, as illustrated in FIG. 9B. […] Following treatment, myoblasts were harvested from exponential growth phase cultures by a standardized detachment procedure using 0.05% Trypsin-EDTA and counted. […]"}}, "data": [{"smiles": "Nc1ncn([C@@H]2O[C@H](CO)[C@@H](O)[C@H]2O)c(=O)n1", "note": "[5-AZA, 5-azacytidine]", "values": [{"measurement": "myotube growth", "setting": "[1]; 0.5 μM of 5-AZA", "result": "not sufficiently concentrated to cause appropriate myotube growth"}, {"measurement": "death of the cells", "setting": "[1]; 50 μM of 5-AZA", "result": "causes the death of the cells in the myoblast cell preparation"}, {"measurement": "concentrations lethal to cells", "setting": "[1]; human", "result": "≥ 50", "unit": "µM"}, {"measurement": "myoblast fusion and myotube formation, morphologically", "setting": "[2]; FIG. 4B", "result": "sufficient to partially restore myoblast fusion and myotube formation"}, {"measurement": "myoblast fusion and myotube formation, quantitatively (Fusion Index)", "setting": "[2]; FIG. 4C", "result": "sufficient to partially restore myoblast fusion and myotube formation"}, {"measurement": "global methylation levels of DNA", "setting": "[3]", "result": "caused global DNA hypomethylation in both CP and TD patients"}, {"measurement": "cell doubling time", "setting": "[4]", "result": "resulted in similar myoblast cell doubling times between CP and TD myoblasts"}]}]}
